Source: ChEMBL document CHEMBL1201862, “PubChem BioAssay data set” (2004)
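Protocol summary: plate cells (96-well), add compound at 5 concentrations, incubate 48 h, interpolate endpoints linearly. GI50 is the concentration that inhibits growth by half.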 The source made the active and inactive calls. No stated cut-off is given here; in the data, active = GI50 up to about 1.1 µM and inactive = higher.

What was measured:
Assay in all cases: inhibition of tumour cell growth, NCI panel, 48 h
[1] = tested on: A549
[2] = tested on: ACHN
[3] = tested on: CCRF-CEM
[4] = tested on: COLO 205
[5] = tested on: DMS-114
[6] = tested on: DMS-273
[7] = tested on: EKVX
[8] = tested on: HCC 2998
[9] = tested on: HCT-116
[10] = tested on: HCT-15
[11] = tested on: HL-60
[12] = tested on: HOP-18
[13] = tested on: HOP-62
[14] = tested on: HOP-92
[15] = tested on: HT-29
[16] = tested on: IGROV-1
[17] = tested on: K562
[18] = tested on: KM-20L2
[19] = tested on: KM12
[20] = tested on: LOX IMVI
[21] = tested on: LXFL 529
[22] = tested on: M14
[23] = tested on: M19-MEL
[24] = tested on: MOLT-4
[25] = tested on: NCI-H23
[26] = tested on: NCI-H460
[27] = tested on: OVCAR-3
[28] = tested on: OVCAR-4
[29] = tested on: OVCAR-5
[30] = tested on: OVCAR-8
[31] = tested on: RPMI-8226
[32] = tested on: RXF 393
[33] = tested on: SF-268
[34] = tested on: SF-539
[35] = tested on: SK-MEL-28
[36] = tested on: SK-MEL-2
[37] = tested on: SK-MEL-5
[38] = tested on: SN12C
[39] = tested on: SNB-19
[40] = tested on: SNB-75
[41] = tested on: SNB-78
[42] = tested on: SR
[43] = tested on: SW-620
[44] = tested on: TK-10
[45] = tested on: U-251
[46] = tested on: UACC-257
[47] = tested on: UACC-62
[48] = tested on: UO-31
[49] = tested on: 786-0
[50] = tested on: A498
[51] = tested on: CAKI-1
[52] = tested on: DLD-1
[53] = tested on: Malme-3M
[54] = tested on: NCI-H226
[55] = tested on: NCI-H522
[56] = tested on: SF-295
[57] = tested on: SK-OV-3
[58] = tested on: MCF7
[59] = tested on: XF498

## COc1ccc(C2=NN(c3nsc4ccccc34)C(=O)CC2)cc1
[1]
  GI50: > 100 µM (inactive)
[2]
  GI50: > 100 µM (inactive)
[3]
  GI50: 82.6 µM (inactive)
[4]
  GI50: > 100 µM (inactive)
[5]
  GI50: 58.5 µM (inactive)
[6]
  GI50: > 100 µM (inactive)
[7]
  GI50: 55.2 µM (inactive)
[8]
  GI50: > 100 µM (inactive)
[9]
  GI50: 54.2 µM (inactive)
[10]
  GI50: 57.9 µM
[11]
  GI50: 39.4 µM (inactive)
[12]
  GI50: 12.6 µM (inactive)
[13]
  GI50: > 100 µM (inactive)
[14]
  GI50: 92 µM (inactive)
[15]
  GI50: > 100 µM (inactive)
[16]
  GI50: 70.1 µM (inactive)
[17]
  GI50: 36 µM (inactive)
[18]
  GI50: > 100 µM (inactive)
[19]
  GI50: > 100 µM (inactive)
[20]
  GI50: 89.1 µM (inactive)
[21]
  GI50: 75 µM (inactive)
[22]
  GI50: > 100 µM (inactive)
[23]
  GI50: > 100 µM (inactive)
[24]
  GI50: 44 µM (inactive)
[25]
  GI50: > 100 µM (inactive)
[26]
  GI50: 62.7 µM (inactive)
[27]
  GI50: 32.3 µM (inactive)
[28]
  GI50: > 100 µM (inactive)
[29]
  GI50: > 100 µM (inactive)
[30]
  GI50: > 100 µM (inactive)
[31]
  GI50: 30.5 µM (inactive)
[32]
  GI50: > 100 µM (inactive)
[33]
  GI50: > 100 µM (inactive)
[34]
  GI50: > 100 µM (inactive)
[35]
  GI50: > 100 µM (inactive)
[36]
  GI50: > 100 µM (inactive)
[37]
  GI50: 61.4 µM (inactive)
[38]
  GI50: > 100 µM (inactive)
[39]
  GI50: 76 µM (inactive)
[40]
  GI50: 84.3 µM (inactive)
[41]
  GI50: > 100 µM (inactive)
[42]
  GI50: 49 µM (inactive)
[43]
  GI50: > 100 µM (inactive)
[44]
  GI50: > 100 µM (inactive)
[45]
  GI50: 91.4 µM (inactive)
[46]
  GI50: > 100 µM (inactive)
[47]
  GI50: > 100 µM (inactive)
[48]
  GI50: 59.2 µM (inactive)

## O=C1NC(=O)C2C1C1C=C3c4ccccc4N(c4ccccc4)C32[C@H]2C(=O)NC(=O)[C@@H]12 (stereo not given in full)
[49]
  GI50: > 100 µM (inactive)
[50]
  GI50: > 100 µM (inactive)
[1]
  GI50: > 100 µM (inactive)
[2]
  GI50: > 100 µM (inactive)
[51]
  GI50: > 100 µM (inactive)
[3]
  GI50: > 100 µM (inactive)
[4]
  GI50: > 100 µM (inactive)
[52]
  GI50: > 100 µM (inactive)
[5]
  GI50: > 100 µM (inactive)
[6]
  GI50: > 100 µM (inactive)
[7]
  GI50: > 100 µM (inactive)
[8]
  GI50: > 100 µM (inactive)
[9]
  GI50: > 100 µM (inactive)
[10]
  GI50: > 100 µM
[11]
  GI50: > 100 µM (inactive)
[12]
  GI50: > 100 µM (inactive)
[13]
  GI50: > 100 µM (inactive)
[14]
  GI50: > 100 µM (inactive)
[15]
  GI50: > 100 µM (inactive)
[16]
  GI50: > 100 µM (inactive)
[17]
  GI50: > 100 µM (inactive)
[18]
  GI50: > 100 µM (inactive)
[19]
  GI50: > 100 µM (inactive)
[20]
  GI50: > 100 µM (inactive)
[21]
  GI50: > 100 µM (inactive)
[22]
  GI50: > 100 µM (inactive)
[23]
  GI50: > 100 µM (inactive)
[24]
  GI50: > 100 µM (inactive)
[53]
  GI50: > 100 µM (inactive)
[54]
  GI50: > 100 µM (inactive)
[26]
  GI50: > 100 µM (inactive)
[55]
  GI50: > 100 µM (inactive)
[27]
  GI50: > 100 µM (inactive)
[28]
  GI50: > 100 µM (inactive)
[29]
  GI50: > 100 µM (inactive)
[30]
  GI50: > 100 µM (inactive)
[31]
  GI50: > 100 µM (inactive)
[33]
  GI50: > 100 µM (inactive)
[56]
  GI50: > 100 µM (inactive)
[34]
  GI50: > 100 µM (inactive)
[35]
  GI50: > 100 µM (inactive)
[36]
  GI50: > 100 µM (inactive)
[37]
  GI50: > 100 µM (inactive)
[57]
  GI50: > 100 µM (inactive)
[38]
  GI50: > 100 µM (inactive)
[39]
  GI50: > 100 µM (inactive)
[40]
  GI50: > 100 µM (inactive)
[41]
  GI50: > 100 µM (inactive)
[43]
  GI50: > 100 µM (inactive)
[44]
  GI50: > 100 µM (inactive)
[46]
  GI50: > 100 µM (inactive)
[47]
  GI50: > 100 µM (inactive)
[48]
  GI50: > 100 µM (inactive)

## CC1=C(C)C(=O)O[C@@H]([C@](C)(O)[C@]2(O)CC[C@@]3(O)[C@@H]4C[C@H]5O[C@]56[C@@H](O)C=CC(=O)[C@]6(C)[C@H]4CC[C@]23C)C1
[1]
  GI50: 4.01 µM (inactive)
[51]
  GI50: 0.025 µM (active)
[3]
  GI50: 0.0851 µM (active)
[8]
  GI50: 1.71 µM (inactive)
[9]
  GI50: 0.182 µM (active)
[10]
  GI50: 0.137 µM
[12]
  GI50: 0.0454 µM (active)
[13]
  GI50: 1.11 µM (active)
[14]
  GI50: 0.0373 µM (active)
[15]
  GI50: 0.174 µM (active)
[16]
  GI50: 1.01 µM (active)
[20]
  GI50: 0.133 µM (active)
[58]
  GI50: 0.186 µM (active)
[53]
  GI50: 0.33 µM (active)
[54]
  GI50: 11 µM (inactive)
[26]
  GI50: 1.6 µM (inactive)
[31]
  GI50: 0.0959 µM (active)
[56]
  GI50: 2.99 µM (inactive)
[34]
  GI50: 0.774 µM (active)
[36]
  GI50: 0.451 µM (active)
[37]
  GI50: 0.414 µM (active)
[57]
  GI50: 6.4 µM (inactive)
[38]
  GI50: 1.04 µM (active)
[39]
  GI50: 2.17 µM (inactive)
[40]
  GI50: 0.0468 µM (active)
[41]
  GI50: 0.499 µM (active)
[45]
  GI50: 1.88 µM (inactive)
[46]
  GI50: 0.308 µM (active)
[48]
  GI50: 0.587 µM (active)
[59]
  GI50: 0.0912 µM (active)

## CCOc1ccc2[nH]c3c(C)c4cc[n+](C)cc4c(C)c3c2c1
[49]
  GI50: 0.149 µM (active)
[1]
  GI50: 1.18 µM (inactive)
[3]
  GI50: 1.98 µM (inactive)
[52]
  GI50: 0.9 µM (active)
[7]
  GI50: 2.57 µM (inactive)
[8]
  GI50: 3 µM (inactive)
[9]
  GI50: 1.82 µM (inactive)
[11]
  GI50: 4.67 µM (inactive)
[12]
  GI50: 2.62 µM (inactive)
[14]
  GI50: 1.98 µM (inactive)
[15]
  GI50: 3.25 µM (inactive)
[16]
  GI50: 2.18 µM (inactive)
[17]
  GI50: 1.58 µM (inactive)
[18]
  GI50: 3.35 µM (inactive)
[19]
  GI50: 1.57 µM (inactive)
[21]
  GI50: 0.22 µM (active)
[22]
  GI50: 5.81 µM (inactive)
[54]
  GI50: 0.264 µM (active)
[25]
  GI50: 0.929 µM (active)
[26]
  GI50: 1.94 µM (inactive)
[55]
  GI50: 0.838 µM (active)
[27]
  GI50: 2.52 µM (inactive)
[28]
  GI50: 2.54 µM (inactive)
[31]
  GI50: 11.3 µM (inactive)
[32]
  GI50: 6.41 µM (inactive)
[33]
  GI50: 0.184 µM (active)
[56]
  GI50: 0.125 µM (active)
[34]
  GI50: 0.363 µM (active)
[35]
  GI50: 2.24 µM (inactive)
[36]
  GI50: 1.51 µM (inactive)
[37]
  GI50: 1.36 µM (inactive)
[57]
  GI50: 2.88 µM (inactive)
[38]
  GI50: 0.14 µM (active)
[41]
  GI50: 1.09 µM (active)
[43]
  GI50: 1.28 µM (inactive)
[45]
  GI50: 0.115 µM (active)
[46]
  GI50: 2.97 µM (inactive)
[47]
  GI50: 1.84 µM (inactive)
[48]
  GI50: 16.6 µM (inactive)
